Source: patent US12129241B1, “9-(2-hydroxypyridin-3-yl)-10-(2-hydroxyethyl)-3,3,6,6-tetramethyl-3,4,6,7,9,10-hexahydroacridine1,8(2H,5H)-dione as an antimicrobial compound” (KING FAISAL UNIVERSITY, priority 2023, dated 2024)

Experiments:
Assay in all cases: Antimicrobial screening by agar dilution
Format in all cases: cell-based
Details in all cases: after 10, 20, 40 and 60 minutes at all dilutions 1:100, 1:200, 1:400, 1:800
Staphylococcus aureus = test system: Staphylococcus aureus
Method: (§1) The antibacterial properties of the synthesized compound 9-(2-hydroxypyridin-3-yl)-10-(2-hydroxyethyl)-3,3,6,6-tetramethyl-3,4,6,7,9,10-hexahydroacridine1,8(2H,5H)-dione were studied by the method of agar dilution. Test solutions of each compound was prepared in concentration of 1% using dimethylformamide as a solvent then they are diluted in physiological solution to obtain the final experimental dilutions 1:100, 1:200, 1:400, 1:800. The effect of these substances are compared with furacillin in a controllable study. The testing microbes used were gram positive bacteria Staphylococcus aureus, gram negative bacteria Pseudomonas aeruginosa and Escherichia coli and Candida albicans fungus. The experiments used for this survey were meat-pentonlu agar (EPA) for cultivation of bacteria and Saburo environment for the fungus. Each experiment used 1 mL of test solution on each plate […]. Two drops of emulsified with microbes feel were added. All experimental samples were taken from the agar after 10, 20, 40, 60 minutes in the environment on the basis of Patrk planted. The bacteria were cultivated at a temperature of 37° C. for 1 day and the mushroom was kept in a thermostat for […] at a temperature of 28° C. Then results were checked.

Pseudomonas aeruginosa = test system: Pseudomonas aeruginosa
Method: as §1

Candida albicans = test system: Candida albicans
Method: as §1

Escherichia coli = test system: Escherichia coli
Method: as §1

Measured: inhibition activity

CC1(C)CC(=O)C2=C(C1)N(CCO)C1=C(C(=O)CC(C)(C)C1)C2c1cccnc1O [9-(2-hydroxypyridin-3-yl)-10-(2-hydroxyethyl)-3,3,6,6-tetramethyl-3,4,6,7,9,10-hexahydroacridine1,8(2H,5H)-dione]
highest inhibition activity: all assays above
